Laboratory results as given in US10611847B2, “ABCG2 monoclonal antibody and uses thereof” (PEKING UNIVERSITY, priority 2016, dated 2020).

Experiments:
Format in all cases: cell-based
MCF 7 = assay: Drug sensitization test (MTT); settings: 72 hours
Source text: (§1) MCF7 Flavo-resistant strain and A549 cisplatin-resistant strain (A549/cis) were used as the experimental cell line with high ABCG2 expression, and the corresponding non-resistant cells MCF7 and A549 with relatively low ABCG2 expression were used as control cell lines in the drug sensitization test. FTC is a specific inhibitor of ABCG2, so the cell group added with FTC was used as a positive control group; the cell group added with a corresponding volume of DMEM high glucose medium or RPMI-1640 medium was used as a negative control group. […] The ABCG2-PKU1, ABCG2-PKU1-1 and ABCG2-PKU2 antibodies prepared in Example 3, as well as mitoxantrone (MTX) and FTC were added. After 72 hours, MTT test was carried out and the absorbance was measured. […] The ratio of the IC50 of the drug-resistant cells to the IC50 of the original cells was calculated, which was the relative drug resistance. Breast cancer cell MCF7 and Flavopiridol (Flavo)-resistant strain MCF7/Flavo cells, lung cancer A549 cells and cisplatin (Cis)-resistant strain A549/Cis cells were divided into 11 groups in the growth inhibition analysis: […]

[1] = test system: A549/cis (Over-expressing ABCG2); assay: Drug sensitization test (MTT); settings: 72 hours
Source text: as §1

A549 = assay: Drug sensitization test (MTT); settings: 72 hours
Source text: as §1

[2] = test system: MCF 7/Flavo (Over-expressing ABCG2); assay: Drug sensitization test (MTT); settings: 72 hours
Source text: as §1

[3] = test system: MCF7, MCF7/ADM, MCF7/FLV1000, MCF7/Mitoxantrone, A549, A549/cis, L02 and L02/Oct4 cells; assay: Tumor cell growth inhibition analysis; settings: agent alone; d1-d6 (FIG. 8)
Experimental: (1) Tumor cell MCF7 and the drug-resistant strains MCF7/ADM, MCF7/FLV1000, MCF7/Mitoxantrone obtained and identified in Example 4, A549 and A549/cis, L02 and L02/Oct4 cells were seeded in a 96-well plate, 3000 cells/90 μl/well, 6 replicate wells, incubated at 37° C. overnight.
(2) According to the following Tables 6-1 and 6-2, mitoxantrone, commercial ABCG2 antibody (BXP-21) and the three ABCG2 antibodies ABCG2-PKU1, ABCG2-PKU1-1 and ABCG2-PKU2 obtained in Example 3 were added to the plate. The plate was then incubated in a, 5% CO2 incubator at 37° C. 10 μl of DMSO was added to the well at d1, d2, d3, d4, d5, and d6, and the absorbance was measured using an ELISA instrument after 2 hours.
(3) Inhibitory rate calculation: OD value of drug-treatment—blank OD value/OD value without drug-treatment—blank OD value, a growth inhibition curve was plotted.

Structure (SMILES)	Relative Drug Resistance (MCF 7; mitoxantrone + agent at 5 μM)	Relative Drug Resistance ([1]; mitoxantrone + agent at 5 μM)	Relative Drug Resistance (A549; mitoxantrone + agent at 5 μM)	Relative Drug Resistance ([2]; mitoxantrone + agent at 5 μM)	Relative Drug Resistance (MCF 7; mitoxantrone alone)	Relative Drug Resistance ([1]; mitoxantrone alone)	Relative Drug Resistance (A549; mitoxantrone alone)	Relative Drug Resistance ([2]; mitoxantrone alone)	inhibition of tumor cell growth [3]
COc1ccc2c3c([nH]c2c1)[C@H](C=C(C)C)N1C(=O)[C@@H]2CCCN2C(=O)[C@@H]1C3 [FTC]	1.03	0.92	1.13	0.77	–	–	–	–	–
O=C1c2c(O)ccc(O)c2C(=O)c2c(NCCNCCO)ccc(NCCNCCO)c21 [Mitoxantrone, mitoxantrone]	–	–	–	–	1.00	1.00	1.00	1.00	could inhibit the growth
